According to patent US20260224494A1, “MILVEXIAN PHARMACEUTICAL COMPOSITIONS” (BRISTOL-MYERS SQUIBB COMPANY, priority 2023, published 2026):
Values joined by “and” are separate entries in the source; they are usually repeats but may differ in a detail not shown here. Identical values can stand only once. Like-named read-outs stand apart in the source and are kept apart here.

Key:
Assay type in all cases: physicochemical
[1] = Solubility test of milvexian (P1.Acetone) in DCM/MeOH 70/30 w/w %, appearance over 20 hours; conditions: 3.75 g in 19.83 g DCM and 8.5 g MeOH (70/30 w/w %); approximately 20 hours stirring
Experimental: Due to the turbid appearance of the solution when dissolving the milvexian (P1.Acetone) in 70/30 w/w % DCM/MeOH, a solubility test was performed by adding 3.75 g of milvexian (P1.Acetone) to a mixture of 19.83 g DCM and 8.5 g MeOH (DCM/MeOH 70/30 w/w %) under stirring by a magnetic stirrer. The appearance of the solution was evaluated at different timepoints over 20 hours.

[2] = Solubility in different aqueous media at 37° C.; conditions: for solubility at 1 day / solubility at 3 days: 37 °C, thermodynamic from solid
[3] = Solubility of milvexian forms in organic solvent systems; conditions: 20 °C, organic solvent or mixture, thermodynamic from solid, 20° C.; for solubility at 2 weeks: read-out: Solubility in mg/mL solution 2 weeks; for solubility at 24 hours: read-out: Solubility in mg/mL solution 24 hours
Experimental: While heating of the feed solution is a viable solution for production, it is a more complex set-up and with risk of crashing out dissolved solids in case of cold spots and plant safety. Various solvent systems (See Table 11 below) were investigated with primary focus on solvent systems containing DCM due to its low boiling point and excellent solubilization properties.
Based on the data it was determined that 70/30 w/w % DCM/MeOH and 80/20 w/w % were promising solvent mixtures and more accurate solubility determination was carried out for 80/20 w/w % DCM/MeOH for both FORM A and P1.Acetone solvate at 20° C. with the results shown in Table 12 below.
P1.Acetone was the preferred crystalline form of milvexian for physical stability and manufacturability reasons. Based on the above, 80/20 w/w % DCM/MeOH solvent system was selected for development due to highly increase solubility over the 90/10 w/w % Acetone/Water solvent system.

Q: Which “solubility test, appearance of the solution” value [1] does the source give for `C[C@@H]1CCC[C@H](n2cnc(-c3cc(Cl)ccc3-n3cc(Cl)nn3)cc2=O)c2cc(ccn2)-c2c(cnn2C(F)F)NC1=O` [P1.Acetone solvate] here?
A: Its value is “not fully dissolved”.

Q: And the “Solubility, μg dissolved per mL at 37° C., replicates” value (“Solubility, μg dissolved per mL” for short) ([2]; 0.05M sodium acetate buffer pH 4.5, 1 day, single replicates)?
A: The value was 1.57 µg/mL.

Q: What about the “Solubility, μg dissolved per mL” value ([2]; 0.05M sodium acetate buffer pH 4.5, 3 days, single replicates) of the same compound?
A: The value was 1.95 µg/mL.

Q: And the “Solubility, μg dissolved per mL” value ([2]; 0.05M sodium phosphate buffer pH 6.8, 1 day, single replicates)?
A: Its value is 1.29 µg/mL and 1.48 µg/mL.

Q: What about the “Solubility, μg dissolved per mL” value ([2]; 0.05M sodium phosphate buffer pH 6.8, 3 days, single replicates) of the same compound?
A: The value was 1.62 µg/mL.

Q: What about the solubility at 1 day ([2]; 0.1M HCl, pH 1, simulated gastric fluid, 0.1M HCl, 1 day, average of 3 replicates, read-out: Solubility, μg dissolved per mL at 37° C., Average) of the same compound?
A: Its solubility at 1 day is 3.43 µg/mL.

Q: And the solubility at 1 day ([2]; 0.1M HCl, pH 1, simulated gastric fluid, 0.1M HCl, 1 day, single replicates, read-out: Solubility, μg dissolved per mL at 37° C., replicates)?
A: The solubility at 1 day was 3.36 µg/mL.

Q: And the solubility at 3 days ([2]; 0.1M HCl, pH 1, simulated gastric fluid, 0.1M HCl, 3 days, average of 3 replicates, read-out: Solubility, μg dissolved per mL at 37° C., Average)?
A: Its solubility at 3 days is 3.49 µg/mL.

Q: And the solubility at 3 days ([2]; 0.1M HCl, pH 1, simulated gastric fluid, 0.1M HCl, 3 days, single replicates, read-out: Solubility, μg dissolved per mL at 37° C., replicates)?
A: The solubility at 3 days was 3.59 µg/mL.

Q: What about the “Solubility, μg dissolved per mL” value ([2]; 0.1M HCl, 1 day, single replicates) of the same compound?
A: The value was 3.47 µg/mL and 3.46 µg/mL.

Q: And the “Solubility, μg dissolved per mL” value ([2]; 0.1M HCl, 3 days, single replicates)?
A: The value was 3.30 µg/mL and 3.58 µg/mL.

Q: What about the solubility at 1 day ([2]; sodium acetate buffer, pH 4.5, aqueous buffer, 0.05M sodium acetate buffer pH 4.5, 1 day, average of 3 replicates, read-out: Solubility, μg dissolved per mL at 37° C., Average) of the same compound?
A: Its solubility at 1 day is 1.69 µg/mL.

Q: What about the solubility at 1 day ([2]; sodium acetate buffer, pH 4.5, aqueous buffer, 0.05M sodium acetate buffer pH 4.5, 1 day, single replicates, read-out: Solubility, μg dissolved per mL at 37° C., replicates) of the same compound?
A: Its solubility at 1 day is 1.81 µg/mL.

Q: What about the solubility at 3 days ([2]; sodium acetate buffer, pH 4.5, aqueous buffer, 0.05M sodium acetate buffer pH 4.5, 3 days, average of 3 replicates, read-out: Solubility, μg dissolved per mL at 37° C., Average) of the same compound?
A: The solubility at 3 days was 1.88 µg/mL.

Q: And the solubility at 3 days ([2]; sodium acetate buffer, pH 4.5, aqueous buffer, 0.05M sodium acetate buffer pH 4.5, 3 days, single replicates, read-out: Solubility, μg dissolved per mL at 37° C., replicates)?
A: The solubility at 3 days was 1.85 µg/mL.

Q: And the solubility at 1 day ([2]; sodium phosphate buffer, pH 6.8, aqueous buffer, 0.05M sodium phosphate buffer pH 6.8, 1 day, average of 3 replicates, read-out: Solubility, μg dissolved per mL at 37° C., Average)?
A: The solubility at 1 day was 1.43 µg/mL.

Q: And the solubility at 1 day ([2]; sodium phosphate buffer, pH 6.8, aqueous buffer, 0.05M sodium phosphate buffer pH 6.8, 1 day, single replicates, read-out: Solubility, μg dissolved per mL at 37° C., replicates)?
A: Its solubility at 1 day is 1.53 µg/mL.

Q: What about the solubility at 3 days ([2]; sodium phosphate buffer, pH 6.8, aqueous buffer, 0.05M sodium phosphate buffer pH 6.8, 3 days, average of 3 replicates, read-out: Solubility, μg dissolved per mL at 37° C., Average) of the same compound?
A: The solubility at 3 days was 1.6 µg/mL.

Q: And the solubility at 3 days ([2]; sodium phosphate buffer, pH 6.8, aqueous buffer, 0.05M sodium phosphate buffer pH 6.8, 3 days, single replicates, read-out: Solubility, μg dissolved per mL at 37° C., replicates)?
A: Its solubility at 3 days is 1.56 µg/mL.

Q: What about the solubility at 2 weeks ([3]; 60/40 DCM/MeOH, 60/40 DCM/MeOH) of the same compound?
A: The solubility at 2 weeks was 99 mg/mL.

Q: What about the solubility at 24 hours ([3]; 60/40 DCM/MeOH, 60/40 DCM/MeOH) of the same compound?
A: Its solubility at 24 hours is 102 mg/mL.

Q: And the solubility at 2 weeks ([3]; 70/30 DCM/MeOH, 70/30 DCM/MeOH)?
A: The solubility at 2 weeks was 160 mg/mL.

Q: And the solubility at 2 weeks ([3]; 80/20 DCM/MeOH, 80/20 DCM/MeOH)?
A: Its solubility at 2 weeks is 227 mg/mL.

Q: And the solubility at 24 hours ([3]; 80/20 DCM/MeOH, 80/20 DCM/MeOH)?
A: Its solubility at 24 hours is 226 mg/mL.

Q: What about the solubility at 2 weeks ([3]; 90/10 DCM/MeOH, 90/10 DCM/MeOH) of the same compound?
A: The solubility at 2 weeks was 225 mg/mL.

Q: What about the solubility at 24 hours ([3]; 90/10 DCM/MeOH, 90/10 DCM/MeOH) of the same compound?
A: Its solubility at 24 hours is 222 mg/mL.

Q: And the solubility at 2 weeks ([3]; 95/5 DCM/MeOH, 95/5 DCM/MeOH)?
A: Its solubility at 2 weeks is 162 mg/mL.

Q: And the solubility at 24 hours ([3]; 95/5 DCM/MeOH, 95/5 DCM/MeOH)?
A: Its solubility at 24 hours is 163 mg/mL.

Q: What about the solubility at 2 weeks ([3]; 100% DCM, 100% DCM) of the same compound?
A: Its solubility at 2 weeks is 33 mg/mL.

Q: What about the solubility at 24 hours ([3]; 100% DCM, 100% DCM) of the same compound?
A: The solubility at 24 hours was 33 mg/mL.

Q: And the solubility at 2 weeks ([3]; 100% MeOH, 100% MeOH)?
A: Its solubility at 2 weeks is 4.8 mg/mL.

Q: And the solubility at 24 hours ([3]; 100% MeOH, 100% MeOH)?
A: Its solubility at 24 hours is 4.6 mg/mL.
